In US7582662B2, “Body weight gain inhibitor” (Takeda Pharmaceutical Company Limited, priority 2002, dated 2009):
Structures can show the parent of a compound that is named as a salt.

Columns and labels:
[1] = Body weight gain of obese mouse (compound A-mixed feed, 4 days); assay type: in vivo, male KKA^y mice; conditions: KKA^y mice, 10 week old, 0.005% compound A-mixed feed (about 6.5 mg/kg/day), mean±standard error, control 1.2±0.2 g, p<0.05
Protocol: Effect of 2-ethoxy-1-[[2′-(2,5-dihydro-5-oxo-1,2,4-oxadiazole-3-yl)biphenyl-4-yl]methyl]benzimidazole-7-carboxylic acid (Compound A) on Body Weight Gain of Obese Mouse
As the obese mouse, male KKA^y mice (10 week old) were used. The mice were grouped by measuring the body weight, and feeding of a CE-2 powdered feed (control)(n=7) and a 0.005% compound A-mixed feed (n=7) was started. At 4 days from feeding, the body weight was measured and the amount of the body weight gain was calculated. As the normal control, C57BL mice were used, and after feeding a CE-2 powdered feed for 4 days, whether the male KKA^y mice of the same age became obese was also examined.
The results are shown in mean±standard error. For the analysis of significance, Student's t-test was used. • 2) Results

[2] = Body weight gain induced by PPARγ agonist-like substance (pioglitazone) in obesity rats; assay type: in vivo, male Wistar fatty rats; conditions: Wistar fatty rats, 7 days
Protocol: Effect of Compound a on Body Weight Gain Induced by PPARγ Agonist-Like Substance (Pioglitazone) As the obesity rats, male Wistar fatty rats (16 week old) were used. The body weights were measured and the rats were grouped, after which a suspension of a drug in 0.5% methylcellulose solution was repeatedly and forcibly administered orally once a day for 7 consecutive days. After 24 hr from the final administration, the body weight was measured and the body weight gain was calculated. […] For the analysis of significance, Student's t-test was used. • 2) Results

[3] = patients with type II diabetes; Diabetes, 47, suppl. 1, A18, No. 69, 1998; cited from earlier work

SMILES: CCOc1nc2cccc(C(=O)O)c2n1Cc1ccc(-c2ccccc2-c2nc(=O)o[nH]2)cc1 [compound A, 2-ethoxy-1-[[2′-(2,5-dihydro-5-oxo-1,2,4-oxadiazol-3-yl)biphenyl-4-yl]methyl]benzimidazole-7-carboxylic acid]
- body weight gain during the test period [1]: 0.1 ± 0.4 g
- amount of body weight gain ([2]; compound A 1 mg/kg/day p.o. together with PPARγ agonist-like substance (pioglitazone hydrochloride) 0.5 mg/kg/day p.o., p<0.05 vs single administration group): 19.3 ± 2.5 g

SMILES: CCc1ccc(CCOc2ccc(CC3SC(=O)NC3=O)cc2)nc1 (stereo not shown) [pioglitazone hydrochloride]
- amount of body weight gain ([2]; 0.5 mg/kg/day p.o. alone, mean±standard error, control 24.4±2.4 g, p<0.05): 30.8 ± 1.8 g

SMILES: Cc1c(C)c2c(c(C)c1O)CCC(C)(COc1ccc(CC3SC(=O)NC3=O)cc1)O2 (stereo not shown) [troglitazone]
- effect on body weight [3]: body weight gaining action
